Experimental data: patent US20240041976A1, “COMPOSITION AND USE” (priority 2020, published 2024)
Read-outs that look alike come from different tables or passages of the source. No end group written: not given here.

How the values were obtained:
[1] = system: three MRSA strains (ATCC33591-lux, USA-300 and MRSA 43484); assay: AAMP assay and checkerboard synergy, summary; assay type: cell-based, Staphylococcus aureus; conditions: for MIC of the antimicrobial in comb. with GarKS: All three strains; for synergy with GarKS: checkerboard assay
Method: Briefly, equal amounts of antimicrobial A were applied on microtiter plate 1 in wells A1-H1 and then diluted two-fold to wells 2-12. Similarly, equal amounts of antimicrobial B were applied on microtiter plate 2 in wells A1-A12 and diluted two-fold in wells B-H. Volumes of 50 μl of antimicrobial A from each well of microtiter plate 1 were transferred into microtiter plate 3, except for wells H1-H12. Similarly, the same volumes were transferred from microtiter plate 2 into plate 3, except for wells A1-A8. […] A 50 μl volume of pure broth was added into each well in lines H1-H12 and A1-A8 which were used to estimate MIC values of pure substances (blank).
(§1) Three-component synergy was assessed by mixing the three components (100 μg of PenG, 50 μg of GarKS and 2.5 μg of MP1) into one well of a microtiter plate, compared with activity of individual antimicrobials on the same plate.

[2] = system: S. pseudintermedius MRSP 45; assay: microbe, parasite or virus in culture; assay type: cell-based, Staphylococcus pseudintermedius; conditions: Staphylococcus pseudintermedius, MRSP45; MRSP 45; 24 h; Table 8; read-out: MIC, single component
Method: (§2) Antimicrobial activity was measured using the AAMP assay (Wiegand et al., 2008, Nat. Protoc., Vol. 3(2), p 163-175).
(§3) Synergy testing was done with a microtiter plate checkerboard assay as previously described (Orhan et al., 2005, J. Clin. Microbiol., Vol. 43(1), p 140-143). Briefly, equal amounts of antimicrobial A were applied on microtiter plate 1 in wells A1-H1 and then diluted two-fold to wells 2-12. Similarly, equal amounts of antimicrobial B were applied on microtiter plate 2 in wells A1-A12 and diluted two-fold in wells B-H. Volumes of 50 μl of antimicrobial A from each well of microtiter plate 1 were transferred into microtiter plate 3, except for wells H1-H12. Similarly, the same volumes were transferred from microtiter plate 2 into plate 3, except for wells A1-A8. A 100 μl volume of 25 times diluted ON bacterial culture of MRSA was transferred into each well of plate 3. A 50 μl volume of pure broth was added into each well in lines H1-H12 and A1-A8 which were used to estimate MIC values of pure substances (blank).
(§4) Antimicrobial activity was measured using the AAMP assay as described in Example 2.
(§5) Synergy testing was performed as in Example 2.

[3] = system: MRSA USA-300; assay: AAMP assay and checkerboard synergy; assay type: cell-based, Staphylococcus aureus; conditions: for MIC: Staphylococcus aureus, 24 h, read-out: MIC, single antimicrobial
Method: as §2, §3
as §1, with “plate. The fractional inhibition concentration (FIC) which was used to define synergy was calculated as set forth in Example 1.” for “plate.”

[4] = system: MRSA ATCC 33591-lux; assay: AAMP assay and checkerboard synergy; assay type: cell-based, Staphylococcus aureus; conditions: for MIC: Staphylococcus aureus, 24 h, read-out: MIC, single antimicrobial
Method: as §2, §3
as §1, with “plate. The fractional inhibition concentration (FIC) which was used to define synergy was calculated as set forth in Example 1.” for “plate.”

[5] = system: MRSA 43484; assay: AAMP assay and checkerboard synergy; assay type: cell-based, Staphylococcus aureus; conditions: MRSA 43484; for MIC: Staphylococcus aureus, 24 h, read-out: MIC, single antimicrobial
Method: as §2, §3
as §1, with “plate. The fractional inhibition concentration (FIC) which was used to define synergy was calculated as set forth in Example 1.” for “plate.”

[6] = system: MRSA ATCC 33591; assay: microbe, parasite or virus in culture; assay type: cell-based, Staphylococcus aureus; conditions: for MIC: Staphylococcus aureus, 24 h, read-out: MIC, single antimicrobial
Method: as §2, §3, §4, §5

[7] = system: S. aureus LMG3271; assay: AAMP assay (MIC), single components and formulation mixture; assay type: cell-based, Staphylococcus aureus; conditions: Staphylococcus aureus, LMG3271, 24 h; read-out: MIC, single component
Method: as §2
as §1, with “plate. The fractional inhibition concentration (FIC) which was used to define synergy was calculated as set forth in Example 1.” for “plate.”

[8] = system: S. aureus LMG3314; assay: as above; assay type: cell-based, Staphylococcus aureus; conditions: Staphylococcus aureus, LMG3314, 24 h; read-out: MIC, single component
Method: as §2
as §1, with “plate. The fractional inhibition concentration (FIC) which was used to define synergy was calculated as set forth in Example 1.” for “plate.”

[9] = system: S. aureus LMG3328; assay: as above; assay type: cell-based, Staphylococcus aureus; conditions: Staphylococcus aureus, LMG3328, 24 h; read-out: MIC, single component
Method: as §2
as §1, with “plate. The fractional inhibition concentration (FIC) which was used to define synergy was calculated as set forth in Example 1.” for “plate.”

[10] = system: S. aureus LMG3266; assay: as above; assay type: cell-based, Staphylococcus aureus; conditions: Staphylococcus aureus, LMG3266, 24 h; read-out: MIC, single component
Method: as §2
as §1, with “plate. The fractional inhibition concentration (FIC) which was used to define synergy was calculated as set forth in Example 1.” for “plate.”

[11] = system: S. aureus LMG3242; assay: as above; assay type: cell-based, Staphylococcus aureus; conditions: Staphylococcus aureus, LMG3242, 24 h; read-out: MIC, single component
Method: as §2
as §1, with “plate. The fractional inhibition concentration (FIC) which was used to define synergy was calculated as set forth in Example 1.” for “plate.”

[12] = system: S. aureus LMG3265; assay: as above; assay type: cell-based, Staphylococcus aureus; conditions: Staphylococcus aureus, LMG3265, 24 h; read-out: MIC, single component
Method: as §2
as §1, with “plate. The fractional inhibition concentration (FIC) which was used to define synergy was calculated as set forth in Example 1.” for “plate.”

[13] = system: S. aureus LMG3263; assay: as above; assay type: cell-based, Staphylococcus aureus; conditions: Staphylococcus aureus, LMG3263, 24 h; read-out: MIC, single component
Method: as §2
as §1, with “plate. The fractional inhibition concentration (FIC) which was used to define synergy was calculated as set forth in Example 1.” for “plate.”

[14] = system: S. aureus LMG3322; assay: as above; assay type: cell-based, Staphylococcus aureus; conditions: Staphylococcus aureus, LMG3322, 24 h; read-out: MIC, single component
Method: as §2
as §1, with “plate. The fractional inhibition concentration (FIC) which was used to define synergy was calculated as set forth in Example 1.” for “plate.”

[15] = system: S. aureus LMG3255; assay: as above; assay type: cell-based, Staphylococcus aureus; conditions: Staphylococcus aureus, LMG3255, 24 h; read-out: MIC, single component
Method: as §2
as §1, with “plate. The fractional inhibition concentration (FIC) which was used to define synergy was calculated as set forth in Example 1.” for “plate.”

[16] = system: S. aureus LMG3307; assay: as above; assay type: cell-based, Staphylococcus aureus; conditions: Staphylococcus aureus, LMG3307, 24 h; read-out: MIC, single component
Method: as §2
as §1, with “plate. The fractional inhibition concentration (FIC) which was used to define synergy was calculated as set forth in Example 1.” for “plate.”

[17] = system: S. aureus LMG3264; assay: as above; assay type: cell-based, Staphylococcus aureus; conditions: Staphylococcus aureus, LMG3264, 24 h; read-out: MIC, single component
Method: as §2
as §1, with “plate. The fractional inhibition concentration (FIC) which was used to define synergy was calculated as set forth in Example 1.” for “plate.”

[18] = system: S. aureus LMG3026; assay: as above; assay type: cell-based, Staphylococcus aureus; conditions: Staphylococcus aureus, LMG3026, 24 h; read-out: MIC, single component
Method: as §2
as §1, with “plate. The fractional inhibition concentration (FIC) which was used to define synergy was calculated as set forth in Example 1.” for “plate.”

[19] = system: S. aureus LMG3258; assay: as above; assay type: cell-based, Staphylococcus aureus; conditions: Staphylococcus aureus, LMG3258, 24 h; read-out: MIC, single component
Method: as §2
as §1, with “plate. The fractional inhibition concentration (FIC) which was used to define synergy was calculated as set forth in Example 1.” for “plate.”

[20] = system: Methicillin-Resistant Staphylococcus aureus; assay type: in vivo, mice; conditions: repeat on larger groups
Method: The experiment was performed essentially as set out in Example 2, except that the following regimes as described below, were used.
50-70 μl of cream was applied per wound.
Treatment was daily for 4 days.
The rifampicin/MP1 experiment was repeated on a larger group of mice in each category (8 mice for each of rifampicin, MP1, rifampicin+MP1, 8 mice with APO base cream 30% as used for rifampicin and MP1, 7 mice untreated). Seven mice were also treated with fucidin cream (2% fusidic acid in a cream base) as a positive control.

[21] = system: E. faecium LMGT 3104; assay: microbe, parasite or virus in culture; assay type: cell-based, Enterococcus faecium
Method: as §2, §3, §4, §5

Molecule | MIC of the antimicrobial in comb. with GarKS [1] | synergy with GarKS [1] | MIC [2] | MIC of the antimicrobial in comb. with GarKS ([3]; MRSA USA-300) | MIC of the antimicrobial in comb. with GarKS ([4]; MRSA ATCC 33591-lux) | MIC of the antimicrobial in comb. with GarKS [5] | MIC [5] | MIC of MP1 in comb. with the labelled antimicrobial [6] | MIC of the labelled antimicrobial in comb. with MP1 [6] | MIC [6] | MIC [7] | MIC [8] | MIC [9] | MIC [10] | MIC [11] | MIC [12] | MIC [13] | MIC [14] | MIC [15] | MIC [16] | other results
O=C(N[C@H](CO)[C@H](O)c1ccc([N+](=O)[O-])cc1)C(Cl)Cl [Cam, Chloramphenicol] | 32 to 64 µg/mL | no synergy or only additive effects | 62 µg/mL | 64 µg/mL | 32/32 μg/ml | 64 µg/mL | 16 µg/mL | 0.08 µg/mL | 8 µg/mL | 62 µg/mL | 16 µg/mL | 8 µg/mL | 8 µg/mL | 32 µg/mL | 8 µg/mL | 32 µg/mL | 32 µg/mL | 8 µg/mL | 16 µg/mL | 8 µg/mL | MIC ([1]; Staphylococcus aureus, 24 h, read-out: MIC, single antimicrobial, All three strains): 16 to 125 µg/mL; MIC ([3]; MRSA): 125 µg/mL; MIC [4]: 125 µg/mL; MIC [17]: 16 µg/mL; MIC [18]: 8 µg/mL; MIC [19]: 16 µg/mL
CO[C@H]1/C=C/O[C@@]2(C)Oc3c(C)c(O)c4c(O)c(c(/C=N/N5CCN(C)CC5)c(O)c4c3C2=O)NC(=O)/C(C)=C\C=C\[C@H](C)[C@H](O)[C@@H](C)[C@@H](O)[C@@H](C)[C@H](OC(C)=O)[C@@H]1C [Rifampicin] | – | – | – | – | – | – | – | 0.08 µg/mL | 1.5 µg/mL | > 100 µg/mL | – | – | – | – | – | – | – | – | – | – | duration of the antimicrobial effect [20]: less than 48 hours
[H]/N=C(/N)N[C@H]1[C@H](O)[C@@H](O)[C@H](O[C@@H]2O[C@@H](C)[C@](O)(C=O)[C@H]2O[C@@H]2O[C@@H](CO)[C@H](O)[C@@H](O)[C@@H]2NC)[C@@H](N/C(N)=N\[H])[C@@H]1O [Str, Streptomycin] | 32 µg/mL | moderate synergy with GarKS only against two MRSA out of three | > 2500 µg/mL | 32 µg/mL | 32 µg/mL | 32 µg/mL | 62 µg/mL | – | – | – | 125 µg/mL | 62 µg/mL | 62 µg/mL | > 125 µg/mL | 250 µg/mL | 31 µg/mL | 31 µg/mL | 62 µg/mL | 125 µg/mL | 62 µg/mL | MIC ([3]; MRSA USA-300): 62 µg/mL; MIC, single antimicrobial ([4]; MRSA ATCC 33591-lux): >2500 µg/mL; MIC ([4]; MRSA ATCC 33591-lux): > 2500 µg/mL; MIC [17]: > 250 µg/mL; MIC [18]: 31 µg/mL; MIC [19]: 62 µg/mL
MKFKFNPTGTIVKKLTQYEIAWFKNKHGYYPWEIPRC [EntK1] | – | – | – | – | – | – | – | – | – | – | – | – | – | – | – | – | – | – | – | – | MIC of MP1 in comb. with the labelled antimicrobial [21]: 0.02 µg/mL; MIC of the labelled antimicrobial in comb. with MP1 [21]: 0.4 µg/mL; MIC, single antimicrobial [21]: >250 µg/mL
